From ChEMBL document CHEMBL4477222, “Discovery of Novel Thiophene-Based, Thumb Pocket 2 Allosteric Inhibitors of the Hepatitis C NS5B Polymerase with Improved Potency and Physicochemical Profiles” (J Med Chem, 2016)
≈ marks a conversion by molar mass, not a printed value. Calls of active or inactive are those of the source. No cut-off for these calls is given here.

Assays:
[1] = Oral bioavailability in Sprague-Dawley rat at 3 mg/kg; type: ADME, organism-based; conditions: in vivo
[2] = Permeability from apical to basolateral side in human Caco2 cells; type: ADME, cell-based; conditions: Caco-2, read-out: permeability
[3] = Ratio of drug level in liver to heart in Sprague-Dawley rat at 10 mg/kg, po; type: ADME, organism-based; conditions: in vivo
[4] = tested on: Hepatitis C virus subtype 1b; experiment: Inhibition of HCV genotype 1b NS5B assessed as suppression of sub-genomic RNA levels after 96 hrs in presence of telaprevir by luciferase reporter gene assay
[5] = Protein binding in human plasma at 1 uM; type: ADME, cell-free; conditions: read-out: PPB (converted)
[6] = Half life in Fischer 344 rat at 3 mg/kg; type: ADME, organism-based; conditions: in vivo
[7] = tested on: NS3 protease (Hepacivirus C), C1KIQ2 [R155K]; experiment: Inhibition of telaprevir-resistant HCV NS3 protease R155K mutant; conditions: Hepacivirus hominis
[8] = tested on: NS3 protease (Hepacivirus C), C1KIQ2 [A156T]; experiment: Inhibition of telaprevir-resistant HCV NS3 protease A156T mutant; conditions: Hepacivirus hominis
[9] = Chemical stability of compound under long term storage in solution; type: physicochemical
[10] = Metabolic stability in rat liver microsomal S9 fraction assessed as compound remaining at 1 uM after 2 hrs in presence of NADPH/UDPGA; type: ADME, subcellular; conditions: read-out: Stability
[11] = tested on: Nonstructural protein 5A (Hepatitis C virus), Q5L478 [UNDEFINED MUTATION]; experiment: Inhibition of BMS-790052-resistant HCV genotype 1a NS5A P32L mutant; conditions: Hepatitis C virus subtype 1a
Cytochrome P450 2E1 = Cytochrome P450 2E1 (Homo sapiens, UniProt P05181); experiment: Inhibition of CYP2E1 (unknown origin); type: ADME
[12] = Protein binding in rat plasma at 1 uM; type: ADME, cell-free; conditions: read-out: PPB (converted)
[13] = AUC (0 to infinity) in dog at 3 mg/kg, po; type: ADME, organism-based, Canis lupus familiaris; set-up: dose 3 mg/kg, time infinity, route oral; conditions: in vivo
[14] = Solubility of the compound in potassium phosphate buffer at pH 7; type: physicochemical
[15] = AUC (0 to infinity) in Sprague-Dawley rat at 3 mg/kg, po; type: ADME, organism-based; set-up: dose 3 mg/kg, route oral, time infinity; conditions: in vivo
[16] = tested on: Nonstructural protein 5A (Hepatitis C virus), Q5L478 [UNDEFINED MUTATION]; experiment: Inhibition of BMS-790052-resistant HCV genotype 1b NS5A Y93H mutant; conditions: Hepatitis C virus subtype 1b
MDCK = experiment: Ratio of permeability in MDCK cells expressing OATP1B1 to permeability in wild type MDCK cells; type: ADME, cell-based, Canis lupus familiaris; conditions: dog
[17] = Drug excretion in rat feces; type: ADME; conditions: in vivo
Cytochrome P450 3A4 [18] = biological target: T1, Cytochrome P450 3A4 (Homo sapiens, UniProt P08684); experiment: Drug metabolism in human liver S9 fraction assessed as CYP3A4-mediated metabolite formation after 1 hr; type: ADME, subcellular; conditions: s9, 1 h
[19] = AUC (0 to infinity) in Sprague-Dawley rat at 1 mg/kg, iv through bolus administration; type: ADME, organism-based; set-up: dose 1 mg/kg, route intravenous, time infinity; conditions: in vivo
Cytochrome P450 3A4 [20] = biological target: T1, Cytochrome P450 3A4; experiment: Induction of CYP3A4 (unknown origin) in hepatocytes; type: ADME, cell-based
[21] = Metabolic stability in monkey liver microsomal S9 fraction assessed as compound remaining at 1 uM after 2 hrs in presence of NADPH/UDPGA; type: ADME, subcellular, Macaca mulatta; conditions: rhesus monkey, read-out: Stability
[22] = biological target: RNA-directed RNA polymerase (Hepacivirus hominis, UniProt O39930, M423I); experiment: Inhibition of HCV genotype 1a NS5B M423I mutant; set-up: species or system Hepatitis C virus subtype 1a
[23] = Half life in Fischer 344 rat at 1 mg/kg, iv through bolus administration; type: ADME, organism-based; conditions: in vivo
[24] = Cytotoxicity against human Huh7ET cells assessed as reduction in cell viability after 4 days; type: cell-based
[25] = biological target: RNA-directed RNA polymerase (Hepacivirus hominis, UniProt O39930, L419M); experiment: Inhibition of HCV genotype 1a NS5B L419M mutant; set-up: species or system Hepatitis C virus subtype 1a
[26] = Oral bioavailability in Fischer 344 rat at 3 mg/kg; type: ADME, organism-based; conditions: in vivo
[27] = Metabolic stability in rat hepatocytes assessed as compound remaining at 10 uM after 2 hrs; type: ADME, cell-based, Hepatocyte; conditions: read-out: Stability
Homo sapiens = organism: Homo sapiens; experiment: Inhibition of human DNA polymerase-gamma by radiometric assay
[28] = tested on: Nonstructural protein 5A (Hepatitis C virus), Q5L478 [UNDEFINED MUTATION]; experiment: Inhibition of BMS-790052-resistant HCV genotype 1a NS5A L31M mutant; conditions: Hepatitis C virus subtype 1a
[29] = Protein binding in dog plasma at 1 uM; type: ADME, cell-free, Canis lupus familiaris; conditions: read-out: PPB (converted)
[30] = Clearance in monkey at 1 mg/kg, iv through bolus administration; type: ADME, organism-based, Macaca mulatta; conditions: rhesus monkey, in vivo
[31] = biological target: DNA polymerase alpha catalytic subunit (Homo sapiens) (UniProt P09884); experiment: Inhibition of human DNA polymerase-alpha by fluorescence/radiometric assay
[32] = Protein binding in monkey plasma at 1 uM; type: ADME, cell-free, Macaca mulatta; conditions: rhesus monkey, read-out: PPB (converted)
[33] = Protein binding in dog liver at 1 uM; type: ADME, tissue-based, Canis lupus familiaris; conditions: read-out: PB (converted)
[34] = tested on: Nonstructural protein 5A (Hepatitis C virus), Q5L478 [UNDEFINED MUTATION]; experiment: Inhibition of BMS-790052-resistant HCV genotype 1a NS5A Y93H mutant; conditions: Hepatitis C virus subtype 1a
[35] = Metabolic stability in monkey liver microsomal S9 fraction assessed as compound remaining at 1 uM after 2 hrs in presence of NADPH; type: ADME, subcellular, Macaca mulatta; conditions: rhesus monkey, read-out: Stability
[36] = Metabolic stability in human liver microsomal S9 fraction assessed as compound remaining at 1 uM after 2 hrs in presence of NADPH; type: ADME, subcellular; conditions: read-out: Stability
[37] = Metabolic stability in dog hepatocytes assessed as compound remaining at 10 uM after 2 hrs; type: ADME, cell-based, Canis lupus familiaris, Hepatocyte; conditions: read-out: Stability
[38] = Half life in dog at 1 mg/kg, iv through bolus administration; type: ADME, organism-based, Canis lupus familiaris; conditions: in vivo
[39] = Cmax in Fischer 344 rat at 3 mg/kg, po; type: ADME, organism-based; set-up: dose 3 mg/kg, route oral; conditions: in vivo
[40] = Oral bioavailability in dog at 3 mg/kg; type: ADME, organism-based, Canis lupus familiaris; conditions: in vivo
[41] = Half life in monkey at 1 mg/kg, iv through bolus administration; type: ADME, organism-based, Macaca mulatta; conditions: rhesus monkey, in vivo
[42] = tested on: NS3 protease (Hepacivirus C), C1KIQ2 [T54A]; experiment: Inhibition of telaprevir-resistant HCV NS3 protease T54A mutant; conditions: Hepacivirus hominis
[43] = Metabolic stability in rat liver microsomal S9 fraction assessed as compound remaining at 1 uM after 2 hrs in presence of NADPH; type: ADME, subcellular; conditions: read-out: Stability
[44] = Ratio of drug level in plasma to lungs in Sprague-Dawley rat at 10 mg/kg, po; type: ADME, organism-based, Lung/Plasma; conditions: in vivo
[45] = AUC (0 to infinity) in dog at 1 mg/kg, iv through bolus administration; type: ADME, organism-based, Canis lupus familiaris; set-up: dose 1 mg/kg, route intravenous, time infinity; conditions: in vivo
[46] = Solubility of the compound in FaSSIF at pH 6.3; type: physicochemical
[47] = Protein binding in rat liver at 1 uM; type: ADME, tissue-based; conditions: read-out: PB (converted)
MDR1 = experiment: Efflux ratio of permeability from basolateral to apical side over apical to basolateral side in MDCK cells expressing MDR1; type: ADME, cell-based, Canis lupus familiaris; conditions: dog
Nonstructural protein 5A = Nonstructural protein 5A (Hepatitis C virus, UniProt Q5L478); experiment: Inhibition of HCV genotype 2a NS5A; set-up: species or system Hepatitis C virus subtype 2a
[48] = Clearance in Fischer 344 rat at 1 mg/kg, iv through bolus administration; type: ADME, organism-based; conditions: in vivo
[49] = tested on: Hepatitis C virus subtype 1b; experiment: Inhibition of HCV genotype 1b NS5B assessed as suppression of sub-genomic RNA levels at 0.5 times IC50 after 96 hrs in presence of human interferon alpha2a and ribavirin by luciferase reporter gene assay
[50] = Clearance in dog at 1 mg/kg, iv through bolus administration; type: ADME, organism-based, Canis lupus familiaris; conditions: in vivo
[51] = Half life in Sprague-Dawley rat at 3 mg/kg, po; type: ADME, organism-based; conditions: in vivo

Work on `CC(C)(C)C#Cc1cc(N(CC(=O)N2CCOCC2)C(=O)[C@H]2CC[C@H](C)CC2)c(C(=O)O)s1` yielded a bioavailability [1] of 69%, a Papp A→B [2] of 0.7 ×10⁻⁶ cm/s and a Ratio [3] of 10. The inhibition [4] was “Active”, the fraction unbound at 1 µM [5] was 0.014 and the half-life [6] was 2.1 h. The inhibition [7] was “Active”, the inhibition [8] was “Active” and the Stability [9] was “Stable”. For the same compound, the remaining at 2 h, 1 µM [10] was 79%, the inhibition [11] was “Active” and the IC50 (Cytochrome P450 2E1) was 14 µM. It also gave a fraction unbound at 1 µM [12] of 0.003, an AUC(0-inf) [13] of 2340 ng·h/mL and a solubility [14] of 1800 µg/mL (≈ 3.79 mM). For the same compound, the AUC(0-inf) [15] was 8860 ng·h/mL, the inhibition [16] was “Active” and the Ratio (MDCK) was 3. The Drug excretion [17] was “Metabolite_Detected”, the Drug metabolism (Cytochrome P450 3A4 [18]) was less than 5% and the AUC [19] was 4270 ng·h/mL. For the same compound, the Activity (Cytochrome P450 3A4 [20]) was “Not Active”, the remaining at 2 h, 1 µM [21] was 14% and the EC50 [22] was 0.089 µM. The half-life [23] was 1.67 h, the CC50 at 96 h [24] was greater than 20 µM and the EC50 [25] was 0.24 µM. The bioavailability [26] was 6.5%, the remaining at 2 h, 10 µM [27] was 100% and the inhibition (Homo sapiens) was “inactive”. For the same compound, the inhibition [28] was “Active”, the fraction unbound at 1 µM [29] was 0.025 and the clearance [30] was 9.9 mL/min/kg. For the same compound, the inhibition [31] was “inactive”, the fraction unbound at 1 µM [32] was 0.023 and the fraction unbound at 1 µM [33] was 0.14. The inhibition [34] was “Active”, the remaining at 2 h, 1 µM [35] was 19% and the remaining at 2 h, 1 µM [36] was 76%. It also gave a remaining at 2 h, 10 µM [37] of 70%, a half-life [38] of 9.8 h and a Cmax [39] of 240 ng/mL. The bioavailability [40] was 57.3%, the half-life [41] was 2.2 h and the inhibition [42] was “Active”. It also gave a remaining at 2 h, 1 µM [43] of 99%, a Ratio [44] of 10 and an AUC(0-inf) [45] of 1360 ng·h/mL. For the same compound, the solubility [46] was 1700 µg/mL (≈ 3.58 mM), the fraction unbound at 1 µM [47] was 0.162 and the efflux ratio (MDR1) was 9.8. The EC50 (Nonstructural protein 5A) was 4.8 µM, the clearance [48] was 13.8 mL/min/kg and the inhibition [49] was “Active”. It also gave a clearance [50] of 10.1 mL/min/kg and a half-life [51] of 3.04 h.
